Results as given in patent publication US4006225A, “Method of using reduction products of everninomicins as antibacterial agents and pharmaceutical compositions useful therefor” (Schering Corporation, priority 1975, dated 1977).
≈ marks a conversion by molar mass, not a printed value. Where “and” joins values, the source holds several entries; their conditions need not be identical. Equal entries are not always repeated. Entries after “also recorded” stand apart in the source; their conditions may differ. Structures can show the parent of a compound that is named as a salt. Where two headings read alike, the source gives them in different places.

Key:
[1] = pKa of purified everninomicin D; assay type: physicochemical
[2] = peak serum levels in dogs; assay type: in vivo; conditions: dog, 10 mg/kg I.M.
Experimental: (§1) In determining peak serum levels, the animal tested (e.g. dog or rat) is given a single dose of 10 or 25 mg/kg of everninomicin D or derivative thereof of this invention, blood samples are taken periodically, and the serum thereof is assayed for anti-bacterial activity by an agar-diffusion-assay as described by Weinstein et al., Antimicrobial Agents and Chemotherapy, p 24 (1964).

[3] = acute toxicity (LD50) in mice; conditions: mouse, in vivo; for LD50 in mice I.P. (mg/kg): ip; for LD50 in mice I.V. (mg/kg): iv; for LD50 in mice S.C. (mg/kg): sc
Experimental: The acute toxicity (LD50) of the antibacterial substances in either aqueous suspensions or aqueous solutions is measured in milligrams per kilogram in standard manner using male CF-1 mice weighing 20 grams.

[4] = peak serum levels in rats; assay type: in vivo; conditions: rat, 25 mg/kg S.C.
Experimental: as §1

[5] = system: Staphylococcus and Streptococcus; test: in vitro susceptibility of gram-positive microorganisms, standard tube dilution (MIC); assay type: cell-based; conditions: for MIC: Staphylococcus and Streptococcus, 24 hours at 37° C, Penassay broth; for antibacterial activity compared with everninomicin D: gram-positive bacteria
Experimental: The comparative in vitro activities of nitrosoeverninomicin D and the sodium salt thereof, hydroxylaminoeverninomicin D and the sodium salt and N-methylglucamine salt thereof, hydroxylaminoeverninomicin D benzyl nitrone N-methylglucamine salt, hydroxylaminoeverninomicin B and hydroxylaminoeverninomicin C are set forth in Table 1 below. The susceptibility of the test gram-positive microorganisms to the antibacterials was determined by standard tube dilution methods. In each instance 10^^-5 dilutions of 24-hour broth cultures were employed as inoculum with the endpoints being taken after incubation for 24 hours at 37° C in a Difco […] broth medium (Difco Labs., Detroit, Michigan). In the tables, the activity (or assay value) of each respective antibacterial agent is expressed in units per milliliter or micrograms per milliliter.

[6] = system: N.gonorrhea and N.meningitidis; test: in vitro susceptibility of gram-negative microorganisms, plate dilution in Thayer-Martin medium (MIC); assay type: cell-based, Neisseria gonorrhea and Neisseria meningitidis; conditions: for MIC: N.gonorrhea and N.meningitidis, Thayer-Martin medium
Experimental: The susceptibility of the gram-negative microorganisms to the antibacterials was determined by plate dilution methods in Thayer-Martin medium by the known Thayer-Martin procedure.

[7] = system: S. aureus (A.T.C.C. 6538p); test: microbiological assay (bioassay), cup-type agar diffusion; assay type: cell-based
Experimental: The microbiological assay (also called the bioassay) is effected microbiologically by a standard cup-type agar diffusion assay technique using S. aureus (A.T.C.C. 6538p) as test organism. A reference curve is prepared by plotting the dosage-response of the antibacterial agent in ethanol diluted by phosphate buffer at pH7 upon a medium of the following composition which has been inoculated with the test organism (i.e. S. aureus): A suspension of the assay organism (S. aureus A.T.C.C. 6538p) is standardized to produce 20% transmission at 660 mμ in a colorimeter. The potency of the sample is determined from the reference curve and expressed in terms of units per milligram (a unit being that amount of test substance required to produce a 15 mm zone of inhibition with a steel cylinder of 6.5 mm outside diameter).

[8] = absorption, serum levels and excretion after injection compared with everninomicin D; assay type: in vivo; conditions: by injection
Experimental: as §1

## COCC1OC(OC2OCC3OC4(OCC(O)(C(C)OC)C5OCOC54)OC3C2OC)C(OC)C(O)C1OC1OC(C)C(OC)C(OC2CC3(C)OC4(CC(O)C(OC5CC(OC6CC(C)([N+](=O)[O-])C(OC)C(C)O6)C(OC(=O)c6c(C)c(Cl)c(O)c(Cl)c6OC)C(C)O5)C(C)O4)OC3C(C)O2)C1O (stereo not drawn) [Everninomicin D, everninomicin D, reference compound]
[1]
  pKa: 7.2
[2]
  Peak serum levels in dogs: 2 to 3 µg/mL
[3]
  LD50 in mice I.P. (mg/kg): > 3800
  LD50 in mice I.V. (mg/kg): 125
  LD50 in mice Oral (mg/kg): > 3800
  LD50 in mice S.C. (mg/kg): > 3800
[4]
  Peak serum levels in rats: 10 to 12 µg/mL
[5]; 24 h, read-out: MIC
  MIC: 0.03 to 0.3 µg/mL (≈ 0.0195 to 0.195 µM)

## COCC1OC(OC2OCC3OC4(OCC(O)(C(C)OC)C5OCOC54)OC3C2OC)C(OC)C(O)C1OC1OC(C)C(OC)C(OC2CC3(C)OC4(CC(O)C(OC5CC(OC6CC(C)(NO)C(OC)C(C)O6)C(OC(=O)c6c(C)c(Cl)c(O)c(Cl)c6OC)C(C)O5)C(C)O4)OC3C(C)O2)C1O (stereo not drawn) [Hydroxylaminoeverninomicin D N-methylglucamine salt]
[2]
  Peak serum levels in dogs: 20 to 30 µg/mL
[3]
  LD50 in mice I.P. (mg/kg): 500
  LD50 in mice I.V. (mg/kg): 30
  LD50 in mice Oral (mg/kg): > 2000
  LD50 in mice S.C. (mg/kg): 500
[4]
  Peak serum levels in rats: 30 to 40 µg/mL
[5]
  MIC: 0.08 to 0.8 µg/mL
[6]
  MIC: 0.2 to 1.0 µg/mL

## COCC1OC(OC2OCC3OC4(OCC(O)C5OCOC54)OC3C2OC)C(OC)C(O)C1OC1OC(C)C(OC)C(OC2CC3(C)OC4(CC(O)C(OC5CC(OC6CC(C)(NO)C(OC)C(C)O6)C(OC(=O)c6c(C)c(Cl)c(O)c(Cl)c6OC)C(C)O5)C(C)O4)OC3C(C)O2)C1O (stereo not drawn) [Hydroxylaminoeverninomicin C, hydroxylaminoeverninomicin C]
[2]; serum, im
  Cmax: 15000 ng/mL
[5]; 24 h, read-out: MIC
  MIC: 0.1 to 0.8 µg/mL (≈ 0.0682 to 0.546 µM)

## CCCCCCC=[N+]([O-])C1(C)CC(OC2CC(OC3C(O)CC4(OC3C)OC3C(C)OC(OC5C(O)C(OC6C(COC)OC(OC7OCC8OC9(OCC(O)(C(C)OC)C%10OCOC%109)OC8C7OC)C(OC)C6O)OC(C)C5OC)CC3(C)O4)OC(C)C2OC(=O)c2c(C)c(Cl)c(O)c(Cl)c2OC)OC(C)C1OC (stereo not drawn) [hydroxylaminoeverninomicin D heptyl nitrone]
[7]
  Bioassay: 892 µg/mL

## COCC1OC(OC2OCC3OC4(OCC(O)(C(C)OC)C5OCOC54)OC3C2OC)C(OC)C(O)C1OC1OC(C)C(OC)C(OC2OC(C)C3OC4(CC(O)C(OC5CC(OC6CC(C)(NO)C(OC)C(C)O6)C(OC(=O)c6c(C)c(Cl)c(O)c(Cl)c6OC)C(C)O5)C(C)O4)OC3(C)C2O)C1O (stereo not drawn) [Hydroxylaminoeverninomicin B, hydroxylaminoeverninomicin B]
[5]; 24 h, read-out: MIC
  MIC: 0.1 to 1 µg/mL (≈ 0.065 to 0.65 µM)

## COCC1OC(OC2OCC3OC4(OCC(O)(C(C)OC)C5OCOC54)OC3C2OC)C(OC)C(O)C1OC1OC(C)C(OC)C(OC2CC3(C)OC4(CC(O)C(OC5CC(OC6CC(C)([N+]([O-])=Cc7ccccc7)C(OC)C(C)O6)C(OC(=O)c6c(C)c(Cl)c(O)c(Cl)c6OC)C(C)O5)C(C)O4)OC3C(C)O2)C1O (stereo not drawn) [hydroxylaminoeverninomicin D benzyl nitrone]
[7]
  Bioassay: 1309.0 µg/mL

## COCC1OC(OC2OCC3OC4(OCC(O)(C(C)OC)C5OCOC54)OC3C2OC)C(OC)C(O)C1OC1OC(C)C(OC)C(OC2CC3(C)OC4(CC(O)C(OC5CC(OC6CC(C)(NO)C(OC)C(C)O6)C(OC(=O)c6c(C)c(Cl)c(O)c(Cl)c6OC)C(C)O5)C(C)O4)OC3C(C)O2)C1O (stereo not drawn) [Hydroxylaminoeverninomicin D sodium salt, hydroxylaminoeverninomicin D sodium salt]
[8]
  absorption compared with everninomicin D: more rapidly absorbed
  excretion compared with everninomicin D: more rapidly excreted than everninomicin D
  serum levels compared with everninomicin D: higher serum levels
[2]
  Peak serum levels in dogs: 20 to 30 µg/mL
[3]
  LD50 in mice I.P. (mg/kg): 500
  LD50 in mice I.V. (mg/kg): 30
  LD50 in mice Oral (mg/kg): > 2000
  LD50 in mice S.C. (mg/kg): 500
[4]
  Peak serum levels in rats: 30 to 40 µg/mL
[5]; sodium salt
  MIC: 0.08 to 0.8 µg/mL
  antibacterial activity compared with everninomicin D: antibacterial activity comparable to that of the everninomicin D precursor; also recorded: comparable antibacterial activity against gram-positive bacteria
[6]; Neisseria meningitidis, read-out: MIC
  MIC: 0.2 to 1 µg/mL

## COCC1OC(OC2OCC3OC4(OCC(O)(C(C)OC)C5OCOC54)OC3C2OC)C(OC)C(O)C1OC1OC(C)C(OC)C(OC2CC3(C)OC4(CC(O)C(OC5CC(OC6CC(C)(N=O)C(OC)C(C)O6)C(OC(=O)c6c(C)c(Cl)c(O)c(Cl)c6OC)C(C)O5)C(C)O4)OC3C(C)O2)C1O (stereo not drawn) [Nitrosoeverninomicin D sodium salt, nitrosoeverninomicin D sodium salt]
[5]; sodium salt
  MIC: 0.08 to 3 µg/mL

## COCC1OC(OC2OCC3OC4(OCC(O)(C(C)OC)C5OCOC54)OC3C2OC)C(OC)C(O)C1OC1OC(C)C(OC)C(OC2CC3(C)OC4(CC(O)C(OC5CC(OC6CC(C)(N=O)C(OC)C(C)O6)C(OC(=O)c6c(C)c(Cl)c(O)c(Cl)c6OC)C(C)O5)C(C)O4)OC3C(C)O2)C1O (stereo not drawn) [Nitrosoeverninomicin D, nitrosoeverninomicin D]
[7]
  Bioassay: 1460 µg/mL
[2]
  Peak serum levels in dogs: 6 µg/mL
[4]
  Peak serum levels in rats: 10 to 11 µg/mL
[5]; 24 h, read-out: MIC
  MIC: 0.08 to 0.8 µg/mL (≈ 0.0526 to 0.526 µM)

## COCC1OC(OC2OCC3OC4(OCC(O)(C(C)OC)C5OCOC54)OC3C2OC)C(OC)C(O)C1OC1OC(C)C(OC)C(OC2CC3(C)OC4(CC(O)C(OC5CC(OC6CC(C)([N+]([O-])=Cc7ccccc7)C(OC)C(C)O6)C(OC(=O)c6c(C)c(Cl)c(O)c(Cl)c6OC)C(C)O5)C(C)O4)OC3C(C)O2)C1O (stereo not drawn) [hydroxylaminoeverninomicin D benzyl nitrone N-methylglucamine salt]
[2]
  Peak serum levels in dogs: 1 to 2 µg/mL
[4]; 25 mg/kg
  Peak serum levels in rats: 10 to 12 µg/mL and 9 µg/mL

## COCC1OC(OC2OCC3OC4(OCC(O)(C(C)OC)C5OCOC54)OC3C2OC)C(OC)C(O)C1OC1OC(C)C(OC)C(OC2CC3(C)OC4(CC(O)C(OC5CC(OC6CC(C)([N+]([O-])=Cc7ccco7)C(OC)C(C)O6)C(OC(=O)c6c(C)c(Cl)c(O)c(Cl)c6OC)C(C)O5)C(C)O4)OC3C(C)O2)C1O (stereo not drawn) [hydroxylaminoeverninomicin D furfuryl nitrone]
[7]
  Bioassay: 1063.4 µg/mL

## COCC1OC(OC2OCC3OC4(OCC(O)(C(C)OC)C5OCOC54)OC3C2OC)C(OC)C(O)C1OC1OC(C)C(OC)C(OC2CC3(C)OC4(CC(O)C(OC5CC(OC6CC(C)(NO)C(OC)C(C)O6)C(OC(=O)c6c(C)c(Cl)c(O)c(Cl)c6OC)C(C)O5)C(C)O4)OC3C(C)O2)C1O (stereo not drawn) [Hydroxylaminoeverninomicin D, hydroxylaminoeverninomicin D]
[8]
  absorption compared with everninomicin D: more rapidly absorbed
[5]
  MIC: 0.3 to 0.8 µg/mL
  antibacterial activity compared with everninomicin D: antibacterial activity comparable to that of everninomicin D; also recorded: comparable antibacterial activity against gram-positive bacteria
[6]; certain gram-negative bacteria, in words
  activity against certain gram-negative bacteria: certain gram-negative bacteria are also susceptible
